Earlier results as cited in EP4623708A1, “SWEETENER COMPOSITION FOR POUCHED ORAL PRODUCTS” (Nicoventures Trading Limited, priority 2024, dated 2025).

Experiments:
[1] = relative to sugar

| Structure (SMILES) | solubility in water | times sweeter than sugar [1] |
| --- | --- | --- |
| CC(/C=C/C=C(C)/C=C/C(=O)O)=C\C=C\C=C(C)\C=C\C=C(C)\C=C\C(=O)O (stereo in doubt) [norbixin, (2E,4E,6E,8E,10E,12E,14E,16E,18E)-4,8,13,17-tetramethylicosa-2,4,6,8,10,12,14,16,18-nonaenedioic acid] | water-soluble |  |
| OC[C@H]1O[C@H](O[C@]2(CCl)O[C@H](CCl)[C@@H](O)[C@@H]2O)[C@H](O)[C@@H](O)[C@H]1Cl [Sucralose, trichlorogalatosucrose] |  | about 600 times |
| COC(=O)/C=C/C(C)=C\C=C\C(C)=C\C=C\C=C(C)\C=C\C=C(C)\C=C\C(=O)O [bixin, (2E,4E,6E,8E,10E,12E,14E,16Z,18E)-20-methoxy-4,8,13,17-tetramethyl-20-oxoicosa-2,4,6,8,10,12,14,16,18-nonaenoic acid] | insoluble in water |  |
